One molecule from ChEMBL document CHEMBL1250518, “Nonsteroidal dissociated glucocorticoid agonists containing azaindoles as steroid A-ring mimetics” (J Med Chem, 2010) can be followed below.

The target in assay [1] is T1, Progesterone receptor (Homo sapiens, UniProt P06401).
T1 sequence (P06401 whole entry): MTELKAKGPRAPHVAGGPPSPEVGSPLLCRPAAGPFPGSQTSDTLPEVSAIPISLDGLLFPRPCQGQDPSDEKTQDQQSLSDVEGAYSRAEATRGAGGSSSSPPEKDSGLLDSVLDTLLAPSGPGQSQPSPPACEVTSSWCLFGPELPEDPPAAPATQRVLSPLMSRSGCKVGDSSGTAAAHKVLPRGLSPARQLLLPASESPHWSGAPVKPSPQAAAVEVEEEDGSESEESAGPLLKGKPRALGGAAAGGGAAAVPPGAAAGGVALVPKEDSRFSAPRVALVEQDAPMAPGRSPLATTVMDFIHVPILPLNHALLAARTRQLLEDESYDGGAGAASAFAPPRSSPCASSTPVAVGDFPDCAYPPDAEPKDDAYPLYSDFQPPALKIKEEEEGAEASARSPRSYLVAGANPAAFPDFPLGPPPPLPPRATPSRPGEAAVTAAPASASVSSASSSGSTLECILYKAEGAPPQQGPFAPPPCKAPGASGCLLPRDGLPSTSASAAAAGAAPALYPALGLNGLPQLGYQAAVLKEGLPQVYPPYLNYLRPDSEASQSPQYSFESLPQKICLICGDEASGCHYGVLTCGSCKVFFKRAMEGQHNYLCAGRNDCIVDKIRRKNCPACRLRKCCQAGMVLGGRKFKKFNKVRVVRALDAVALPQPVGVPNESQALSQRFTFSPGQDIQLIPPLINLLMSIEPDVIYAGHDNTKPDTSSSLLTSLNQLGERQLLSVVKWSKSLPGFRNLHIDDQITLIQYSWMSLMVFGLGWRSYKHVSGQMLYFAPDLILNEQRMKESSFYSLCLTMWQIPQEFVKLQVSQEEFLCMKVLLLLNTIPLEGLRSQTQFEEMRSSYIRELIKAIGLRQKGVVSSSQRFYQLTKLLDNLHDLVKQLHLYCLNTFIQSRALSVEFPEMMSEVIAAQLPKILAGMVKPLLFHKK
In words: Binding affinity to progesterone receptor expressed in baculovirus-infected insect cells using tetramethylrhodamine labeled RU-486 by fluorescence polarization microplate assay. For orientation: In fluorescence polarisation assays a small probe gives low polarisation when free and higher when bound to something large.

In assay [2] the test system is Mus musculus. In words: Antiinflammatory activity in po dosed BALB/c mouse assessed as reduction of LPS-induced plasma TNFalpha level administered 1 hr before LPS challenge by ELISA. It counts as functional.

pIC50: −log10 of the molar value. Where only a bound is given, the exact number is not on record here.

In assay [1], `CC(C)(C[C@@](O)(Cc1cc2ccncc2[nH]1)C(F)(F)F)c1cc(F)ccc1O` had a pIC50 of 5.92. Moreover, the ED50 in assay [2] was under 0.3 mg/kg.

What is called pIC50 is −log10 of the IC50, conventionally taken in molar units. Read a low pIC50 as a high IC50. What is called ED50 is the midpoint of the dose-response relation.
